According to ChEMBL document CHEMBL2086293, “Diaminopyridine-based potent and selective mps1 kinase inhibitors binding to an unusual flipped-Peptide conformation” (ACS Med Chem Lett, 2012):

Assays:
[1] = target: Mitogen-activated protein kinase 8 (Homo sapiens, UniProt P45983); test: Inhibition of JNK1-mediated ATF2 phosphorylation after 1 hr by ELISA
A549 [2] = test: Antiproliferative activity against human A549 cells after 72 hrs by WST8 assay; format: functional, cell-based; details: A549, 72 h
A549 [3] = test: Antitumor activity against human A549 cells xenografted in po dosed BALB/cA Jcl-nu/nu mouse assessed as tumor growth inhibition administered QD for 19 days; format: functional, organism-based
[4] = target: Receptor-type tyrosine-protein kinase FLT3 (Homo sapiens) (UniProt P36888); test: Inhibition of FLT3 at 1 uM
[5] = AUC in mouse at 25 mg/kg, po; format: ADME, organism-based; set-up: dose 25 mg/kg, route oral; details: plasma
Mus musculus = test: Toxicity in BALB/cA Jcl-nu/nu mouse xenografted with human A549 cells assessed as body weight loss at 100 mg/kg, po administered QD for 19 days; format: organism-based; set-up: dose 100 mg/kg, route oral; details: in vivo, 456 h
[6] = system: T1, Receptor-type tyrosine-protein kinase FLT3 (Homo sapiens), P36888 [D835Y]; test: Inhibition of FLT3 D835Y mutant at 1 uM
T1 sequence (whole entry): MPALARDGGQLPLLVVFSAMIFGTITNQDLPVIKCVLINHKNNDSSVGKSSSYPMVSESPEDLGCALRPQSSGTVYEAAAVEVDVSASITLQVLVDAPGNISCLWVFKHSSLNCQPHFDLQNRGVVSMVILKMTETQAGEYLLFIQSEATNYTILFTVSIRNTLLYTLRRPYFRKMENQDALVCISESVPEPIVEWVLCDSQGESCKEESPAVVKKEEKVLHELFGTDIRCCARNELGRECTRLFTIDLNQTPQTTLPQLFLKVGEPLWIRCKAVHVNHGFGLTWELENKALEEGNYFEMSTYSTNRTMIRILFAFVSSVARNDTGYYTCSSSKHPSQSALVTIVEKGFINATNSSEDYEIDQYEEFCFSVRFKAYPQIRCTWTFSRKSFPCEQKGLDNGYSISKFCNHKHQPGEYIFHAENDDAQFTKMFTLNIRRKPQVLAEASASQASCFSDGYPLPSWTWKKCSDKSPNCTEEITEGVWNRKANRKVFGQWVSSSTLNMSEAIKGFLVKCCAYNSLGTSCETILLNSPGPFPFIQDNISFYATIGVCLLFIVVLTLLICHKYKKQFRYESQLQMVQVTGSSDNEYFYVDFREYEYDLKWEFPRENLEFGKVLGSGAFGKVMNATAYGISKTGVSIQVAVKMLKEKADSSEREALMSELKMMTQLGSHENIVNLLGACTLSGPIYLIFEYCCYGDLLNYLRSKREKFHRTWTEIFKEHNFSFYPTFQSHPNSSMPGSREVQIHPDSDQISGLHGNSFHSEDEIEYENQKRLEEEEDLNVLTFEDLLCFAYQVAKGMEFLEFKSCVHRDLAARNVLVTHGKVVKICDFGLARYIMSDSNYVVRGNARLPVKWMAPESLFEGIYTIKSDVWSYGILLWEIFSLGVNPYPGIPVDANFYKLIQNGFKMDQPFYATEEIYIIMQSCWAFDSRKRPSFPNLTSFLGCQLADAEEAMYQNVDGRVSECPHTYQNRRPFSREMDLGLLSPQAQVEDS

A549 [7] = test: Antitumor activity against human A549 cells xenografted in BALB/cA Jcl-nu/nu mouse assessed as tumor growth inhibition at 100 mg/kg, po administered QD for 19 days relative to vehicle-treated control; details: 456 h, read-out: TGI
[8] = Cmax in mouse at 25 mg/kg, po; format: ADME, organism-based; set-up: dose 25 mg/kg, route oral; details: in vivo
[9] = Tmax in mouse at 25 mg/kg, po; format: ADME, organism-based; set-up: dose 25 mg/kg, route oral; details: in vivo

Sequence of Mitogen-activated protein kinase 8 (P45983 whole entry): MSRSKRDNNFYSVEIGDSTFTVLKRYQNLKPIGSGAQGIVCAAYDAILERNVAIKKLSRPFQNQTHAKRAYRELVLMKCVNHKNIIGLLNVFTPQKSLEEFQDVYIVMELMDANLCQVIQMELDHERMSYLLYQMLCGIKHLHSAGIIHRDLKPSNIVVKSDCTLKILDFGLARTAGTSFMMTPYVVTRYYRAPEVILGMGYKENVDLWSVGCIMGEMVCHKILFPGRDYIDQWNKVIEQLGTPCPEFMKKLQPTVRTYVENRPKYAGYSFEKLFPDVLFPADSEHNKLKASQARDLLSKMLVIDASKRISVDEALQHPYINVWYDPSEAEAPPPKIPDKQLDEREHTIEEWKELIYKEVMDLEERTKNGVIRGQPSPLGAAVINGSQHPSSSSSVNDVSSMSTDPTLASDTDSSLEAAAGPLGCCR

SMILES	IC50 [1]	IC50 (A549 [2])	other results
CCOc1nc(C(=O)NCc2ccccc2)cc(N)c1C#N	350 nM	–	–
CCOc1nc(Nc2ccc(C(N)=O)cc2)cc(N)c1C#N	190 nM	9500 nM	–
CCOc1nc(NC(=O)Cc2ccccc2)cc(N)c1C#N	260 nM	–	–
CCOc1nc(Nc2ccccc2)cc(N)c1C#N	1040 nM	–	–
CC(C)(C)Nc1nc(Nc2ccc(C(N)=O)cc2)cc(N)c1C#N	231 nM	840 nM	TGI (A549 [3]): Dose-dependent effect; inhibition [4]: 50%; AUC [5]: 6600 ng·h/mL; Activity (Mus musculus): Non-toxic; inhibition [6]: 86%; inhibition in vivo at 100 mg/kg (A549 [7]): 47%; Cmax [8]: 3540 ng/mL; Tmax [9]: 15 min
CCOc1nc(NCCc2ccccc2)cc(N)c1C#N	> 100000 nM	–	–
